For series [1], the target named is Serine/threonine-protein kinase B-raf (Homo sapiens, UniProt P15056, V600E). The series is described as follows: Inhibition of B-RAF V600E mutant (unknown origin) using […] as substrate incubated for 40 mins in presence of [gamma33P]ATP by scintillation counter based kinase assay.
The target of series [2] is Serine/threonine-protein kinase B-raf (Homo sapiens, UniProt P15056). The series is described as follows: Inhibition of human recombinant B-Raf using […] as substrate incubated for 40 mins in presence of [gamma33P]ATP by scintillation counter based kinase assay.
The target in series [3] is RAF proto-oncogene serine/threonine-protein kinase (Homo sapiens, UniProt P04049). The series is described as follows: Inhibition of human recombinant C-Raf using Glu-Tyr-Met-Pro-Met-Glu as substrate incubated for 60 mins by radiometric kinase assay.
Series [4] deals with Epidermal growth factor receptor (Homo sapiens, UniProt P00533). The series is described as follows: Inhibition of human recombinant EGFR using poly(Glu-Tyr) as substrate at 4:1 ratio in presence of ATP incubated for 60 mins by ELISA analysis.
Epidermal growth factor receptor, sequence (P00533 whole entry): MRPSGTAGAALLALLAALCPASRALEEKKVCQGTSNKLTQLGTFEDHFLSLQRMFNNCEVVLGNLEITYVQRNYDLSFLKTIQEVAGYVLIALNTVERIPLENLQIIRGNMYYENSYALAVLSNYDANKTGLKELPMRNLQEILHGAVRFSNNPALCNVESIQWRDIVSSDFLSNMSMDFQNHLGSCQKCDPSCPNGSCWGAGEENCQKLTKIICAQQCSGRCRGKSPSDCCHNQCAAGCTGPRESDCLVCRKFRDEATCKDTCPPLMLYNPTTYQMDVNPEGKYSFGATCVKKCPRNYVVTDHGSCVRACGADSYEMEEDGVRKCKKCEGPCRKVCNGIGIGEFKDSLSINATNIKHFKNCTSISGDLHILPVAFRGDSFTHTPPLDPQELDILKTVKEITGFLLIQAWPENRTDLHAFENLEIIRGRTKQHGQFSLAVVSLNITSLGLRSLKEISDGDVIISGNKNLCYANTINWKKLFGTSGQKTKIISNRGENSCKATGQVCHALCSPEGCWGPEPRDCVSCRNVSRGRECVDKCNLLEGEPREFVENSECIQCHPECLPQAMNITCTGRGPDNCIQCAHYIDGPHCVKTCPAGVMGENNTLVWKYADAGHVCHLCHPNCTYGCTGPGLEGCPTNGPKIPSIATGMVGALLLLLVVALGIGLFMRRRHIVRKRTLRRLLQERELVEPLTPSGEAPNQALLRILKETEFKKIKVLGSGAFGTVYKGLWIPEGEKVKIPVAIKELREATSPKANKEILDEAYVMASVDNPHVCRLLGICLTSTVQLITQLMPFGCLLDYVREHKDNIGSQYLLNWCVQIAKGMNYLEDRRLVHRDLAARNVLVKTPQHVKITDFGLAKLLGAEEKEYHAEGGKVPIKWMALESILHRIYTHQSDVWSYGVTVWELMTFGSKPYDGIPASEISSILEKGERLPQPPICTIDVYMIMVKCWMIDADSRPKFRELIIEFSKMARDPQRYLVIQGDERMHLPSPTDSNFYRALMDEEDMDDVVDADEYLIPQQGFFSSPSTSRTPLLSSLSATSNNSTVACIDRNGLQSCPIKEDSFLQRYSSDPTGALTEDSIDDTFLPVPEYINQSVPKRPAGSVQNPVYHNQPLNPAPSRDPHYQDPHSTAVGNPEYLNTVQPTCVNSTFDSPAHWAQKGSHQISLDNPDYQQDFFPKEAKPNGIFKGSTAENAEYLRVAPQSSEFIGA
In series [5] the target is T1, Vascular endothelial growth factor receptor 2 (Homo sapiens, UniProt P35968). The series is described as follows: Inhibition of VEGFR-2 (unknown origin) kinase activity using poly(Glu-Tyr) at 4:1 ratio as substrate in presence of ATP incubated for 60 mins by ELISA. For orientation: In an ELISA, binding on a coated surface is turned into a signal by an enzyme label.
T1 sequence (P35968 whole entry): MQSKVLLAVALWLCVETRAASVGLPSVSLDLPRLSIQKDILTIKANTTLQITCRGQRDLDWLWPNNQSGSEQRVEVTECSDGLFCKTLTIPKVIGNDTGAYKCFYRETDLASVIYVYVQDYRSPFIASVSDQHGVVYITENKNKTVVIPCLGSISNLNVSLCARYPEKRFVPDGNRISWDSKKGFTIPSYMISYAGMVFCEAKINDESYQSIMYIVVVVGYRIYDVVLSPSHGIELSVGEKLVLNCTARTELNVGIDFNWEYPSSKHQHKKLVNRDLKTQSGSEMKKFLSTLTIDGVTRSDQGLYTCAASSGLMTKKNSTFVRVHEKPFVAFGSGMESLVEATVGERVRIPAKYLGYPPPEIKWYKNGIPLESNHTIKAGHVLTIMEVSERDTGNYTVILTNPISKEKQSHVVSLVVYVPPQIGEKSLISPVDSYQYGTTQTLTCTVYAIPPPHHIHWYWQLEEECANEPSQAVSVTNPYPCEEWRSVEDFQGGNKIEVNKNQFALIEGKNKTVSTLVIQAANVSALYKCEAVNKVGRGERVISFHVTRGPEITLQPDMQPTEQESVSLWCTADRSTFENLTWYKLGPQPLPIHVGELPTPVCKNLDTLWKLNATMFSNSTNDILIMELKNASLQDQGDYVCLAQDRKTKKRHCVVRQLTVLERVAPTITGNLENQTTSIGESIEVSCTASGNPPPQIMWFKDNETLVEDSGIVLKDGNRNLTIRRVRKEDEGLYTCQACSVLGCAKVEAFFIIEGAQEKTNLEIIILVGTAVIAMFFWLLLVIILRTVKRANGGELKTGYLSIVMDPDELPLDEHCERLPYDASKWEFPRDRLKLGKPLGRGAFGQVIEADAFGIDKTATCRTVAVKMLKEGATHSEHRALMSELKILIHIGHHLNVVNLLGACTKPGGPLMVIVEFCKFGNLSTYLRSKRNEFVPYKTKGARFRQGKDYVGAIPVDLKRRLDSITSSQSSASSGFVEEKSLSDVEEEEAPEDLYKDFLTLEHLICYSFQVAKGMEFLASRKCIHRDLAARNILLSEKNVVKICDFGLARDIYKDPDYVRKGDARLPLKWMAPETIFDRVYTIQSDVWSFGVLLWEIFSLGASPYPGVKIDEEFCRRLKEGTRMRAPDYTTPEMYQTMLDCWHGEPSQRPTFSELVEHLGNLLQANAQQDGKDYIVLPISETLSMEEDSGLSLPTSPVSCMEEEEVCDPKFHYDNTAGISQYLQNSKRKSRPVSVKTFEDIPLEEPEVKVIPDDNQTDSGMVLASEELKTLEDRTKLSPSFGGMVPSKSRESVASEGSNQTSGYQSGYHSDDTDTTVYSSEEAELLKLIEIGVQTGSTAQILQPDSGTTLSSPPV

Series [6] deals with PC-3. The series is described as follows: Antiproliferative activity against human PC-3 cells assessed as reduction in cell growth measured after 24 hrs by MTT assay. In kind it is functional, cell-based. As to conditions: PC-3, 24 h.
The test system of series [7] is MCF7. The series is described as follows: Antiproliferative activity against human MCF7 cells assessed as reduction in cell growth measured after 24 hrs by MTT assay. In kind it is functional, cell-based. The conditions noted are these: MCF7, 24 h.
The subject of series [8] is HepG2. The series is described as follows: Antiproliferative activity against human HepG2 cells assessed as reduction in cell growth measured after 24 hrs by MTT assay. In kind it is functional, cell-based. The conditions noted are these: HepG2, 24 h. On the technique in general: Tetrazolium assays rely on reduction of a dye to a coloured formazan, in cell work by metabolically active cells.

Series [9] relates to HUVEC. The series is described as follows: cells. The conditions noted are these: Homo sapiens.
Series [10] concerns HUVEC. The series is described as follows: cells. The conditions noted are these: Homo sapiens. The source holds these as a separate data set.
The nature of series [11]: in vitro. The conditions noted are these: human, HUVEC cells.
Series [12] in a line: Oral bioavailability in rat at 2.5 mg/kg. The format is ADME, organism-based. As to conditions: in vivo.
Series [13] has as its system Calu-6. The series is described as follows: Antitumor activity against human Calu-6 cells xenografted in athymic mouse assessed as inhibition of tumor growth at 100 mg/kg, po administered once daily for 21 days relative to control. The format is functional. Also on record: scale not given: the % may be the effect or the level left. The conditions noted are these: time 21 day. (In xenograft studies the graft and the host belong to different species.)

Series [14] in a line: Half life in rat at 5 mg/kg, iv. In kind it is ADME, organism-based. The conditions noted are these: in vivo.
Series [15] relates to MCF7. The series is described as follows: Growth inhibition of human MCF7 cells incubated for 24 hrs by MTT assay. The format is functional.
For series [16], the system named is HCT-116. The series is described as follows: Growth inhibition of human HCT-116 cells incubated for 24 hrs by MTT assay. In kind it is functional.
Series [17] has as its target T1, Vascular endothelial growth factor receptor 2.
The subject of series [18] is HepG2. The series is described as follows: Growth inhibition of human HepG2 cells incubated for 24 hrs by MTT assay. In kind it is functional.
Series [19] relates to HepG2. The series is described as follows: Antiproliferative activity against human HepG2 cells assessed as reduction in cell growth incubated for 48 hrs by MTT based colorimetric analysis. In kind it is functional. As to conditions: HepG2, 48 h.
Series [20] concerns A549. The series is described as follows: cells. As to conditions: Homo sapiens, A549, 48 h.
Series [21] has as its system NCI-H460. The series is described as follows: cells. As to conditions: Homo sapiens, NCI-H460, 48 h.
The subject of series [22] is Macrophage. The series is described as follows: cells. The conditions noted are these: Homo sapiens, 48 h.
Series [23] relates to MCF7. The series is described as follows: cells. The conditions noted are these: Homo sapiens, MCF7, 48 h.
Series [24] concerns HCT-116. The series is described as follows: cells. As to conditions: Homo sapiens, HCT-116, 48 h.
The test system of series [25] is MCF7. The series is described as follows: cells. As to conditions: Homo sapiens, MCF7, 48 h. This is another data set of the same source.
Series [26] concerns B16. The series is described as follows: Antiproliferative activity against mouse B16 cells assessed as reduction in cell viability incubated for 48 hrs by MTT assay. In kind it is functional, cell-based. The conditions noted are these: B16, 48 h.
Series [27] deals with HepG2. The series is described as follows: Antiproliferative activity against human HepG2 cells assessed as reduction in cell viability measured after 72 hrs by MTT assay. The format is functional, cell-based. The conditions noted are these: HepG2, 72 h.
The subject of series [28] is MCF7. The series is described as follows: Antiproliferative activity against human MCF7 cells assessed as reduction in cell viability measured after 72 hrs by MTT assay. The format is functional, cell-based. As to conditions: MCF7, 72 h.
Series [29] has as its target Vascular endothelial growth factor receptor 1 (Homo sapiens, UniProt P17948). The series is described as follows: Inhibition of VEGFR-1 (unknown origin).
In series [30] the target is T1, Vascular endothelial growth factor receptor 2. This is another data set of the same source.
For series [31], the target named is Ephrin type-B receptor 4 (Homo sapiens, UniProt P54760).
The target in series [32] is Angiopoietin-1 receptor (Homo sapiens, UniProt Q02763). The series is described as follows: Inhibition of TIE-2 (unknown origin).
Angiopoietin-1 receptor, sequence (Q02763 whole entry): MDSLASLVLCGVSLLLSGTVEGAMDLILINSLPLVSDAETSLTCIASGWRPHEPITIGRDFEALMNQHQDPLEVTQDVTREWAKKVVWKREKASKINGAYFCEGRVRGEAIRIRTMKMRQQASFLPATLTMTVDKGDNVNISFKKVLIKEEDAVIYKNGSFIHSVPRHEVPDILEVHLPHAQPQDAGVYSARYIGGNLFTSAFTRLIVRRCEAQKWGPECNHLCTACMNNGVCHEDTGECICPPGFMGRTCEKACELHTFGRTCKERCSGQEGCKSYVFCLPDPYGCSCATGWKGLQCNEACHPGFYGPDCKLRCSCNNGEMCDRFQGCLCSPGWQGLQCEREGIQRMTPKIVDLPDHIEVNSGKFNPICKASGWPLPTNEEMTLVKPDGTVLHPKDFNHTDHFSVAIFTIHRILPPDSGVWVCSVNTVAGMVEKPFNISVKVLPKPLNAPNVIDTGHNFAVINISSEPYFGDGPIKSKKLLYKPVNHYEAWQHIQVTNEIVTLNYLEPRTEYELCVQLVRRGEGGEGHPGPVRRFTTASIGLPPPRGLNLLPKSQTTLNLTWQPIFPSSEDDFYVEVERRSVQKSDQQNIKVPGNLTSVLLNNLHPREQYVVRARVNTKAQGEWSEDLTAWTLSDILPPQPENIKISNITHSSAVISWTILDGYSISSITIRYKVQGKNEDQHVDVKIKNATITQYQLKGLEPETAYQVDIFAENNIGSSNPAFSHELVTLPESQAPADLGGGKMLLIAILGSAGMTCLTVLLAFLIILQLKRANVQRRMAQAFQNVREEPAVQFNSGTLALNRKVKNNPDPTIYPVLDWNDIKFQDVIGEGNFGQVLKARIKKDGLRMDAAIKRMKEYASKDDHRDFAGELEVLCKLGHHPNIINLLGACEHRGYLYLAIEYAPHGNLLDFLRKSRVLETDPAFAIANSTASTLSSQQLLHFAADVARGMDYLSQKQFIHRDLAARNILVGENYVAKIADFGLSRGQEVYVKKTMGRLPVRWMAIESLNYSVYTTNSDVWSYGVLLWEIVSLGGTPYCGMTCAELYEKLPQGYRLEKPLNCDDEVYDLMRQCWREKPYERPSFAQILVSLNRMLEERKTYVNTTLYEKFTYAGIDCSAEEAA
Series [33] deals with Platelet-derived growth factor receptor beta (Homo sapiens, UniProt P09619). The series is described as follows: Inhibition of human recombinant PDGFRbeta using poly (Glu, Tyr)4:1 as substrate measured after 60 mins by ELISA.
Platelet-derived growth factor receptor beta, sequence (P09619 whole entry): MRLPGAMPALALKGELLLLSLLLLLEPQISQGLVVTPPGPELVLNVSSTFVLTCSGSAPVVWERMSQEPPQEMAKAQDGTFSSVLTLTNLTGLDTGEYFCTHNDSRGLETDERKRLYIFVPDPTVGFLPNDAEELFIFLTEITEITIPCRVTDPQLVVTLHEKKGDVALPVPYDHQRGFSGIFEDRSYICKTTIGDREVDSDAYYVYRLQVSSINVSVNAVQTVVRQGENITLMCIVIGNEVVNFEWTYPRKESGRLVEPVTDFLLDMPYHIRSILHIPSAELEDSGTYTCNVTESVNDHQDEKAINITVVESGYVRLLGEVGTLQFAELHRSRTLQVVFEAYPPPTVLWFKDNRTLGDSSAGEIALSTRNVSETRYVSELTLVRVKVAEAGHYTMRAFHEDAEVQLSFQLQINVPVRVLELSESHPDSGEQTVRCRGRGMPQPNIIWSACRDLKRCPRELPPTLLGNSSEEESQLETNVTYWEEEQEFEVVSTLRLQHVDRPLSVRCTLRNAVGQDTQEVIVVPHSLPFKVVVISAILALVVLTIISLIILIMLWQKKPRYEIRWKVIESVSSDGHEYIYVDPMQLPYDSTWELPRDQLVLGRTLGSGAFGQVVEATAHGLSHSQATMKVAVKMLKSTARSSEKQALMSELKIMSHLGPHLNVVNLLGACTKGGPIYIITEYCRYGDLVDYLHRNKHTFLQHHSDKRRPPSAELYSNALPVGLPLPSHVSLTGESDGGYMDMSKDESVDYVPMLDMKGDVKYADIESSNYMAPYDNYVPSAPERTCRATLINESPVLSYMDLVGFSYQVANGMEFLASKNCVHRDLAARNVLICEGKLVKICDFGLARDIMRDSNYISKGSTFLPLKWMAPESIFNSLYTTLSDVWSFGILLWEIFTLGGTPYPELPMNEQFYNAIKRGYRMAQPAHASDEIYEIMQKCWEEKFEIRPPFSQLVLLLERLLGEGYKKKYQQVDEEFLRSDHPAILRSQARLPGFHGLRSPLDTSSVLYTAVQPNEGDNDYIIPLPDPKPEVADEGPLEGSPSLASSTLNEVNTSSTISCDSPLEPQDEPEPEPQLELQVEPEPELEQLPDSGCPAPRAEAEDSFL
Series [34] relates to MHCC97H. The series is described as follows: Antiproliferative activity against human MHCC97H cells assessed as reduction in cell viability incubated for 48 hrs by CCK-8 assay. The format is functional, cell-based.
Series [35] deals with HUVEC. The series is described as follows: Antiproliferative activity against HUVEC cells assessed as reduction in cell viability incubated for 48 hrs by CCK-8 assay. In kind it is functional, cell-based. The conditions noted are these: Homo sapiens.
The test system of series [36] is HUVEC. The series is described as follows: Antiproliferative activity against VEGF-stimulated HUVEC cells assessed as cell growth inhibition measured after 24 hrs by BrdUrd incorporation based spectrophotometric analysis. In kind it is functional. As to conditions: Homo sapiens.
Series [37] deals with T1, Vascular endothelial growth factor receptor 2. The series is described as follows: Inhibition of human VEGFR-2 using biotinylated synthetic peptide biotin-aminohexyl-EEEEYFELVAKKKK-NH2 as substrate pre-incubated for 30 mins and measured after 30 mins by FRET assay.

Converted amounts (≈) assume the structure as drawn. Where only a bound is given, the exact number is not on record here.

Regarding `NC(=O)CCn1cc(-c2ccc3ncnc(Nc4cc(O)c(F)cc4F)c3c2)nn1`, the IC50 (as a rule, the midpoint of a concentration-inhibition curve) was 51 nM in series [1]; 57 nM in series [2]; 1000 nM in series [3]; 73 nM in series [4]; 7 nM in [5].
As to `COc1cccc2c1C(=O)c1c(O)c3c(c(O)c1C2=O)C[C@@](O)(C(=O)CO)C[C@@H]3O[C@H]1C[C@H](N)[C@H](O)[C@H](C)O1` [DOXORUBICIN], the results for the IC50 in series [6], in series [7] and in series [8] were 8.87 µg/mL (≈ 16.3 µM), 6.75 µg/mL (≈ 12.4 µM) and 7.94 µg/mL (≈ 14.6 µM), respectively.
`COc1cc2/c(=N/c3ccc(Br)cc3F)nc[nH]c2cc1OCC1CCN(C)CC1` [VANDETANIB]: the results for the EC50 in [9], in series [10] and in series [11] were 10 nM, 60 nM and over 3000 nM, respectively. For the same compound, the bioavailability – broadly, dose-corrected exposure relative to a reference, in per cent – in series [12] is over 50%. Moreover, in series [13], the Activity came out at 79%. In addition, the half-life (in general, how long it takes for the measured level to halve) in series [14] is 8.3 h.
`O=C(Cn1c(=O)c2ccccc2n(Cc2ccccc2)c1=O)Nc1ccc(C(=O)N/N=C/c2ccc(Cl)cc2)cc1`: the figures for the GI50 in [15], in series [16] and in series [18] were 5270 nM, 5690 nM and 9160 nM, respectively. For the same compound, the concentration for half-maximal inhibition (IC50) in series [17] came out at 120 nM.
For `CCNC(=S)NS(=O)(=O)c1ccc(NC(=O)CSc2nc3ccccc3c(=O)n2CC)cc1`, the IC50 in series [19] came out at 4330 nM.
As for `COc1ccc(Cc2nnc(COc3ncnc4ccccc34)o2)cc1OC`, the IC50 was 580 nM in [20], 390 nM in series [21], 288000 nM in series [22] and 350 nM in [23].
With `COc1cc2ncnc(Oc3cccc(NC(=S)Nc4ccc(Cl)c(C(F)(F)F)c4)c3)c2cc1OC`, the IC50 in series [24] stood at 9130 nM; in [25], 17700 nM; in [26], 6110 nM.
With `CCn1c(SCCCN2C(=O)c3ccccc3C2=O)nc2cc3ccccc3cc2c1=O`, the 50% inhibitory concentration (IC50) in [27] was found to be 26000 nM; in series [28], 9400 nM.
Turning to `COc1cc2ncnc(Oc3cccc(NC(=S)Nc4ccc(Br)c(C(F)(F)F)c4)c3)c2cc1OC`, the IC50 stood at 8350 nM in series [24], 15700 nM in series [25] and 5570 nM in series [26].
`COc1cc2ncnc(Nc3ccsc3C(=O)Nc3ccc(F)c(Cl)c3)c2cc1OC`: the results for the IC50 in series [29] and in [30] were 110 nM and 87 nM, respectively.
On to `O=C(Nc1ccc(-c2ccc3c(=O)[nH]cnc3c2)cc1)Nc1ccc(F)c(F)c1`, for which the values for the IC50 in series [31], in series [32] and in series [33] were 3210 nM, 8870 nM and 98500 nM, respectively.
Turning to `COc1cc2nccc(Oc3ccc(NC(=O)C4(C(=O)Nc5ccc(F)cc5)CC4)cc3)c2cc1OC` [CABOZANTINIB], the IC50 is 25 µg/mL (≈ 49.8 µM) in [34] and 2.7 µg/mL (≈ 5.38 µM) in series [35].
In the case of `Cc1ncc([N+](=O)[O-])n1CCOc1ncnc2ccc([N+](=O)[O-])cc12`, the IC50 stood at 1520 nM in series [20], 1230 nM in series [21], 290000 nM in series [22] and 1610 nM in [23].
Regarding `COc1cc2nc(-c3ccccc3)n(-c3nnc(-c4ccc(Cl)cc4)s3)c(=O)c2cc1OC`, the IC50 in series [36] was determined as 5.5 nM; in series [37], 3.8 nM.

For the origin of these results see ChEMBL document CHEMBL5625175, “Quinazoline-based VEGFR-2 inhibitors as potential anti-angiogenic agents: A contemporary perspective of SAR and molecular docking studies” (Eur J Med Chem, 2023).
